Results: the kinase profiling compilation of Christmann-Franck et al. (2016)

How the values were obtained:
Test in all cases: KINOMEscan competition binding
Conditions in all cases: compound 0.1 µM
[1] = target: SRPK3 (human) (UniProt Q9UPE1)
[2] = target: PRKCQ (human) (UniProt Q04759)
[3] = tested on: PIK3CA (human), P42336 [H1047L]
[4] = target: MAP4K5 (human) (UniProt Q9Y4K4)
[5] = target: STK4 (human) (UniProt Q13043)
[6] = target: CDKL3 (human) (UniProt Q8IVW4)
[7] = target: FER (human) (UniProt P16591)
[8] = target: IKBKE (human) (UniProt Q14164)
[9] = target: EPHB4 (human) (UniProt P54760)
[10] = target: SGK2 (human) (UniProt Q9HBY8)
[11] = target: GSG2 (human) (UniProt Q8TF76)
[12] = target: MAP3K1 (human) (UniProt Q13233)
[13] = target: PLK2 (human) (UniProt Q9NYY3)
[14] = target: RIPK1 (human) (UniProt Q13546)
[15] = target: ADCK4 (human) (UniProt Q96D53)
[16] = target: PKN1 (human) (UniProt Q16512)
[17] = target: CDK8 (human) (UniProt P49336)
CDK8 (human), sequence (P49336 whole entry, looked up): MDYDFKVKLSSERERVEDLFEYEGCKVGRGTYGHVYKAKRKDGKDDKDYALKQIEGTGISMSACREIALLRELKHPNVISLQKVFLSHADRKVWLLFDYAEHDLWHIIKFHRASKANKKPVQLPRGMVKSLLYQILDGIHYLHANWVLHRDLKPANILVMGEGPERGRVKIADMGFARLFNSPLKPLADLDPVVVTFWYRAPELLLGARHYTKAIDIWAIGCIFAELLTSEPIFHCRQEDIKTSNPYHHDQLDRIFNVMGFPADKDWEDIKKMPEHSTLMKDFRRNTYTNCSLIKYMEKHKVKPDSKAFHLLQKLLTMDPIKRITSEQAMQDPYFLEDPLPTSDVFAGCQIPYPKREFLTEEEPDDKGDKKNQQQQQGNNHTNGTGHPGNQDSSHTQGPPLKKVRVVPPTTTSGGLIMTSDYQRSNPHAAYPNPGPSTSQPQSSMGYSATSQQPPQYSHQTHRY

[18] = target: RPS6KB1 (human) (UniProt P23443)
[19] = target: CHEK1 (human) (UniProt O14757)
[20] = target: HIPK3 (human) (UniProt Q9H422)
[21] = target: MYO3A (human) (UniProt Q8NEV4)
[22] = target: TSSK1B (human) (UniProt Q9BXA7)
[23] = tested on: FLT3 (human), P36888 [K663Q]
[24] = target: CSNK2A1 (human) (UniProt P68400)
CSNK2A1 (human), sequence (P68400 whole entry, looked up): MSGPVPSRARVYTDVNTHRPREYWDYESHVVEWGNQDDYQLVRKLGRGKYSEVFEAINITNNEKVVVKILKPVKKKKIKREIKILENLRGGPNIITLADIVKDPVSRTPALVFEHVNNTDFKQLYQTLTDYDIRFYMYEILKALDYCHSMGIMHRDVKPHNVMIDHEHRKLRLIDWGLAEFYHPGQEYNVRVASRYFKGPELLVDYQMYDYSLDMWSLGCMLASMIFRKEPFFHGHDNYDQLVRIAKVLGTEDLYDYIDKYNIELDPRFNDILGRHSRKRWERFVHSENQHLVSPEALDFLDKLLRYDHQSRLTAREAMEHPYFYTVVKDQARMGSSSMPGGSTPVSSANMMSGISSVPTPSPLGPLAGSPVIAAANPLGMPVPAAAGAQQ

[25] = target: MYLK4 (human) (UniProt Q86YV6)
[26] = target: CHEK2 (human) (UniProt O96017)
[27] = target: MAPK1 (human) (UniProt P28482)
MAPK1 (human), sequence (P28482 whole entry, looked up): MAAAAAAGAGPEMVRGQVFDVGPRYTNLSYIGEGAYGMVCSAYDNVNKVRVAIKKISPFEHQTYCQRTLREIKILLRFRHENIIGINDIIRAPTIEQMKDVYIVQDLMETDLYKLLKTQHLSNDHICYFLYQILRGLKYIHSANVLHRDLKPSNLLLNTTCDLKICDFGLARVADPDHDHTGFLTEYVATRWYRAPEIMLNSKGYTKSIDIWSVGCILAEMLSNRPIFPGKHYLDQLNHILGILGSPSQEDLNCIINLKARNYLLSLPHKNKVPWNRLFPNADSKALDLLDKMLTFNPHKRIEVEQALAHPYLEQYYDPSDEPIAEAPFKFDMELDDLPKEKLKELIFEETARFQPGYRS

[28] = tested on: EGFR (human), P00533 [T790M]
[29] = target: HIPK1 (human) (UniProt Q86Z02)
[30] = tested on: ABL1 (human), P00519 [M351T]
[31] = tested on: PIK3CA (human), P42336 [E545K]
[32] = target: EPHA6 (human) (UniProt Q9UF33)
[33] = target: CASK (human) (UniProt O14936)
[34] = target: RPS6KA3 KD1 (human) (UniProt P51812)
RPS6KA3 KD1 (human), sequence (P51812 whole entry, looked up): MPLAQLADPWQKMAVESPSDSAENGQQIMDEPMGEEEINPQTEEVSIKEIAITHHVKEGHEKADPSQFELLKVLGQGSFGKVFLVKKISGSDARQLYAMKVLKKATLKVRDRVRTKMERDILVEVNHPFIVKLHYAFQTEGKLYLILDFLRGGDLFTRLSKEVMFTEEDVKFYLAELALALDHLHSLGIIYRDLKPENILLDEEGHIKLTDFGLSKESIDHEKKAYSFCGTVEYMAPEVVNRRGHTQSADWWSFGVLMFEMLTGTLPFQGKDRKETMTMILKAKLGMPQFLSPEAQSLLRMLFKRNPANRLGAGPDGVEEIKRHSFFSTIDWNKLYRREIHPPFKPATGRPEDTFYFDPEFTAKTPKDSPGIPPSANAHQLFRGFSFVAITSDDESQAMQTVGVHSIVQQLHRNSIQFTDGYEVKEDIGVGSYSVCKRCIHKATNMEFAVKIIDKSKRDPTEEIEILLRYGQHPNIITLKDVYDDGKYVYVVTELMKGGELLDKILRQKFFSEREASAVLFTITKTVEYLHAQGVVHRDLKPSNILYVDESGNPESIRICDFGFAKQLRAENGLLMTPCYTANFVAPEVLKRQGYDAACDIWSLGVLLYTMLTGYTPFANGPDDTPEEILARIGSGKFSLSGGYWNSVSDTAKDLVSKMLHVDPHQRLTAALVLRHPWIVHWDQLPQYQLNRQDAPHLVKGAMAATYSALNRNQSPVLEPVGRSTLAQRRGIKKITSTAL

[35] = target: PRKAA2 (human) (UniProt P54646)
PRKAA2 (human), sequence (P54646 whole entry, looked up): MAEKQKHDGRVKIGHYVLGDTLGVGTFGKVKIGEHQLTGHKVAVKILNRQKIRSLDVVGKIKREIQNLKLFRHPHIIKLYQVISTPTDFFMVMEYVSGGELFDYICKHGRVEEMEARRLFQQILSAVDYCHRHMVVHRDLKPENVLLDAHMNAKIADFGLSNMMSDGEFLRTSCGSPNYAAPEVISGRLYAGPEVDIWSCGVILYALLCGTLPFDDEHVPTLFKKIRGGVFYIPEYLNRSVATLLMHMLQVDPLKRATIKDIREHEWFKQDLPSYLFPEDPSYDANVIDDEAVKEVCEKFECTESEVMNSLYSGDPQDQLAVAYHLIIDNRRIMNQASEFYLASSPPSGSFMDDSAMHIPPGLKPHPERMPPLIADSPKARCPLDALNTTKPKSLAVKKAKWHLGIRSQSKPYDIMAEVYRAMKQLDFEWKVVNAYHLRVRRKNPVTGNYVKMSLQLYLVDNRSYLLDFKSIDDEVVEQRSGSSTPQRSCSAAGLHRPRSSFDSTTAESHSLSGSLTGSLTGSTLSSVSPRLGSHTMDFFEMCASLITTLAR

[36] = target: BMPR1A (human) (UniProt P36894)
[37] = target: CAMKK2 (human) (UniProt Q96RR4)
CAMKK2 (human), sequence (Q96RR4 whole entry, looked up): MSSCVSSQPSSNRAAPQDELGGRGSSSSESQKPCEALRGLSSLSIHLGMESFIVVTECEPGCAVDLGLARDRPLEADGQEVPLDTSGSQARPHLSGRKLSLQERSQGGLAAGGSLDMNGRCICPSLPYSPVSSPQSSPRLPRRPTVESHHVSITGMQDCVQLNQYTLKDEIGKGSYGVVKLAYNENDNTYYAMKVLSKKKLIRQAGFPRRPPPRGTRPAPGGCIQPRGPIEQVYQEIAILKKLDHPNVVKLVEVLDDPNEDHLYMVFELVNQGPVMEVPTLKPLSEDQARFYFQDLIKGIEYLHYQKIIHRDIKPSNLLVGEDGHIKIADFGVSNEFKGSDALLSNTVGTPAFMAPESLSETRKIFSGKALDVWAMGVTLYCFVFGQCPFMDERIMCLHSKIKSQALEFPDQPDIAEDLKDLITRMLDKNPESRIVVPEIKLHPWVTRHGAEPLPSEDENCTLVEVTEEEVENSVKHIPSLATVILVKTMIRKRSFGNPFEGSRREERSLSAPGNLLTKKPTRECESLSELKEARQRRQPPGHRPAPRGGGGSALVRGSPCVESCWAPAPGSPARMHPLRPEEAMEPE

[38] = tested on: KIT (human), P10721 [V559D/T670I]
[39] = target: RPS6KA6 KD1 (human) (UniProt Q9UK32)
[40] = target: WNK3 (human) (UniProt Q9BYP7)

MAP4K5 (human), sequence (Q9Y4K4 whole entry, looked up): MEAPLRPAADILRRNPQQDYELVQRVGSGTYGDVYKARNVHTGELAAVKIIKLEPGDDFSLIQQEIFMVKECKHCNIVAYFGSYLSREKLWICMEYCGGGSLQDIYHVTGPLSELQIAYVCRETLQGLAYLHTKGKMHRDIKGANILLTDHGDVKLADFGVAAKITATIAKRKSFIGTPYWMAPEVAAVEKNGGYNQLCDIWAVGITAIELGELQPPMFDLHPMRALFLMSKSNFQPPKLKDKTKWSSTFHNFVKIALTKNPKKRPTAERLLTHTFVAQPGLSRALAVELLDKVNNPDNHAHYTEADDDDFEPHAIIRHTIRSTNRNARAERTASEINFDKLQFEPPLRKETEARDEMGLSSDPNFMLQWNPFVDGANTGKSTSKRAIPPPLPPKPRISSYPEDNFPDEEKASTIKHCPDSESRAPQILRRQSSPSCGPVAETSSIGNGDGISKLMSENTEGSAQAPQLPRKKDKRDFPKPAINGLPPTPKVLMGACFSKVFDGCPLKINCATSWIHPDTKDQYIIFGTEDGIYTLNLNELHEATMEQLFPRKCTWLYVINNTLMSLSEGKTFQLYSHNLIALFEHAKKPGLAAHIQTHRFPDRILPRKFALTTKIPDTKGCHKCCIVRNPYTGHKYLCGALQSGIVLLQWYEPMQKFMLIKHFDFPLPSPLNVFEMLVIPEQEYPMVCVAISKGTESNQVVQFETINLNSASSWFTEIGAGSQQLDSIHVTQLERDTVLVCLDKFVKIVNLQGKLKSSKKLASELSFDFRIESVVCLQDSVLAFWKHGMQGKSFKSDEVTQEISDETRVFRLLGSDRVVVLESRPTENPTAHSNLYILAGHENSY
PIK3CA (human), P42336 [H1047L], sequence (P42336 whole entry H1047L, looked up): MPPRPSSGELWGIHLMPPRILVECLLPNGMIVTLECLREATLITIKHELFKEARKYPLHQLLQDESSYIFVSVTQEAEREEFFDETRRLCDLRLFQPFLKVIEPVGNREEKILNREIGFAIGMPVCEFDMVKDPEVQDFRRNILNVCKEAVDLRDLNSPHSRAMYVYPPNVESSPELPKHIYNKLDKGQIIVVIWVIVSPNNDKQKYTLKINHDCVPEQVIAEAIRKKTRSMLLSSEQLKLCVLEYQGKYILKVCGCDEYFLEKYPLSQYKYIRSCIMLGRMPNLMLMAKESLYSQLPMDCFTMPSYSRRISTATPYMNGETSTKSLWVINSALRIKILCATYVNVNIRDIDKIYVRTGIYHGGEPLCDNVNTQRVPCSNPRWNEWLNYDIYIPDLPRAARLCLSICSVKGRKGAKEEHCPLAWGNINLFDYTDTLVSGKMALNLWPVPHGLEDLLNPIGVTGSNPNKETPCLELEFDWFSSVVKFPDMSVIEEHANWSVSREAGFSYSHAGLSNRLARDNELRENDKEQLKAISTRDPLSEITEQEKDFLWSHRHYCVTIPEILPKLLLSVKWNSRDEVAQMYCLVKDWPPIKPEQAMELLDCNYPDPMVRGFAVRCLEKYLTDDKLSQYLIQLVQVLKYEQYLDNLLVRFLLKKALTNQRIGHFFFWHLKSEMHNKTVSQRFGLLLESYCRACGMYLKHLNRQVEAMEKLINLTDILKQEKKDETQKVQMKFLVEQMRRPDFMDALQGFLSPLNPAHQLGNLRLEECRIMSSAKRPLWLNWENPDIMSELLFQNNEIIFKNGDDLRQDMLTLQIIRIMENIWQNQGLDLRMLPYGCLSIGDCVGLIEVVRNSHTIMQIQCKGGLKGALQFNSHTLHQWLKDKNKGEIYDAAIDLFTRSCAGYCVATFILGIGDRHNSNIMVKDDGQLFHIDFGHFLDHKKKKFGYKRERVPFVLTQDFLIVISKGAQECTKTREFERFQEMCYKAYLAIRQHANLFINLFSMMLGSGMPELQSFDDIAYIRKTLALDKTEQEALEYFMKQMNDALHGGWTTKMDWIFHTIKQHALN

CCc1ccc(C(=O)Nc2cc(CN3CCN(C)CC3)cc(C(F)(F)F)c2)cc1C#Cc1cnc2ccnn2c1
kinase still bound, per cent of control [1]: 92%
kinase still bound, per cent of control [2]: 80%
kinase still bound, per cent of control [3]: 100%
kinase still bound, per cent of control [4]: 100%
kinase still bound, per cent of control [5]: 63%
kinase still bound, per cent of control [6]: 56%
kinase still bound, per cent of control [7]: 70%
kinase still bound, per cent of control [8]: 100%
kinase still bound, per cent of control [9]: 100%
kinase still bound, per cent of control [10]: 94%
kinase still bound, per cent of control [11]: 75%
kinase still bound, per cent of control [12]: 100%
kinase still bound, per cent of control [13]: 100%
kinase still bound, per cent of control [14]: 100%
kinase still bound, per cent of control [15]: 100%
kinase still bound, per cent of control [16]: 100%
kinase still bound, per cent of control [17]: 76%
kinase still bound, per cent of control [18]: 100%
kinase still bound, per cent of control [19]: 100%
kinase still bound, per cent of control [20]: 100%
kinase still bound, per cent of control [21]: 100%
kinase still bound, per cent of control [22]: 95%
kinase still bound, per cent of control [23]: 70%
kinase still bound, per cent of control [24]: 100%
kinase still bound, per cent of control [25]: 93%
kinase still bound, per cent of control [26]: 100%
kinase still bound, per cent of control [27]: 100%
kinase still bound, per cent of control [28]: 100%
kinase still bound, per cent of control [29]: 100%
kinase still bound, per cent of control [30]: 100%
kinase still bound, per cent of control [31]: 100%
kinase still bound, per cent of control [32]: 63%
kinase still bound, per cent of control [33]: 100%
kinase still bound, per cent of control [34]: 100%
kinase still bound, per cent of control [35]: 100%
kinase still bound, per cent of control [36]: 100%
kinase still bound, per cent of control [37]: 73%
kinase still bound, per cent of control [38]: 96%
kinase still bound, per cent of control [39]: 100%
kinase still bound, per cent of control [40]: 100%
